# Assay results as given in paper PMC6271933, “Evaluation of the Toxicity of 5-Aryl-2-Aminoimidazole-Based Biofilm Inhibitors against Eukaryotic Cell Lines, Bone Cells and the Nematode Caenorhabditis elegans” (Molecules, 2014).
# Entries after “also recorded” stand apart in the source; their conditions may differ.
# Tests used:
# [1] = tested on: GH4C1 rat pituitary and N2A mouse neuroblastoma cell lines; design: method as in PMID 18493660; conditions: compared with parent molecule bromoageliferin; cited from earlier work
# [2] = tested on: Caenorhabditis elegans; design: method as in PMID 22292413; conditions: cited from earlier work
# [3] = tested on: HaCaT keratinocyte cells; design: method as in PMID 22292413; conditions: cited from earlier work
# [4] = tested on: osteoblasts (OB); experiment: Calcium assay for osteogenic differentiation potential; type: cell-based, human; conditions: 12.5 µM, 3 weeks (Figure 6) or 5 weeks (methods) of exposure
# Method: (§1) MSC and OB were cultured in osteogenic medium for 3 and 5 weeks, respectively. The experimental groups included a positive solvent control (osteogenic medium with 0.5% DMSO background), a negative control (medium without osteogenic supplements) and treated samples (osteogenic medium, 0.5% DMSO background and 12.5 µM of test compound). Cell cultures were extracted by 5% trichloroacetic acid (500 μL per sample). O-Cresolphtalein complex was added (Calcium CPC LiquiColor Test®; Stanbio Laboratory, Boerne, TX, USA), and the calcium content was determined spectrophotometrically at 550 nm.
# (§2) To determine the DNA content, cells were washed with PBS, and 200 μL of digestion buffer (10 mM Tris, 1 mM EDTA, 0.1% Triton X-100, 0.1 mg/mL proteinase K) was added. Samples were incubated in digestion buffer overnight at 56 °C. The supernatants were drawn off and PicoGreen® dye (Molecular Probes, Eugene, OR, USA) was added to the samples in 1:1 ratio and read in a fluorescent plate reader (excitation 485 nm and emission 528 nm). DNA values were used to normalize the calcium content. Four wells per condition were examined, and two samples from each well were taken for each assay.
# [5] = tested on: mesenchymal stem cells (MSC); experiment: as above; type: cell-based, human; conditions: 12.5 µM, 5 weeks (Figure 6) or 3 weeks (methods) of exposure
# Method: as §1, §2
# [6] = tested on: S. Typhimurium biofilm; conditions: concentration preventing biofilm formation (at 25 °C) by 50%; as previously reported ref 13, 14, 15, 16; read-out: BIC50 S. Typhimurium; cited from earlier work
# [7] = tested on: human bone marrow-derived mesenchymal stem cells (MSC); experiment: Metabolic activity of bone cells, MTT staining; type: cell-based; conditions: 12.5 µM, 6 days exposure, MTT staining (results not shown)
# Method: (§3) The cytotoxicity of the compounds was measured on cell cultures of two cell types represented in bone tissue, namely human osteoblasts (OB) and human bone marrow-derived mesenchymal stem cells (MSC). These tests were conducted according to ISO 10993-5 cytotoxicity standard. The cells were seeded in a 96-well plate at a density of 5000 cells/cm^2 in cell culture media (Advanced DMEM, 10% FBS, 1× GlutaMAX, 0.05 mg/mL gentamicin) and allowed to attach overnight. The next day the test compounds (12.5 μM) and controls were added to the cells (negative controls were cell culture medium and cell culture medium with 0.5% DMSO background, positive control was 0.05% phenol to show a cytotoxic effect) and incubated for 2h, 48h and 6 days and at each time-point the numbers of viable and dead cells were determined by trypan blue staining, and the metabolic activity was determined with MTT staining.
# (§4) MTT: the medium was removed from the wells and 100 μL of medium, supplemented with 10% serum and 0.5 mg/mL MTT was added to the cells. The cells were incubated overnight at 37 °C and 5% CO2. The next day the medium with MTT was removed and 100 μL acidic isopropanol was added. The cells were then centrifuged at 2300 g and 50 μL of the supernatant was transferred to a new 96-well plate. The absorbance was measured at 570 nm and the background was measured at 660 nm. Four wells per condition were examined.
# [8] = tested on: human osteoblasts (OB); experiment: Metabolic activity of bone cells, MTT staining; type: cell-based; conditions: 12.5 µM, 6 days exposure, MTT staining (results not shown)
# Method: as §3, §4
# [9] = tested on: murine leukemia (L1210); experiment: Cytostatic activity against tumor cell lines (cell number by Coulter counter); type: cell-based; conditions: Mus musculus, L1210, 48 h; concentration inhibiting cell proliferation by 50%; two days incubation; mean of three repeats
# Method: (§5) The IC50 was defined as the compound concentration required to inhibit cell proliferation by 50%. The therapeutic index (TI) was calculated as the ratio of the compound concentration producing toxicity (IC50) to the concentration needed to exert the desired ‘therapeutic’ effect on biofilms of Salmonella and Pseudomonas, indicated by the BIC50 (dose needed to prevent biofilm formation by 50%). The higher the therapeutic index, the broader the safety window of the compound.
# (§6) Murine leukemia (L1210), human T-lymphocyte (CEM) and human cervix carcinoma (HeLa) were suspended at 300,000–500,000 cells/mL of culture medium, and 100 µL of a cell suspension was added to 100 µL of an appropriate dilution of the test compounds in 200 µL-wells of 96-well microtiter plates. After incubation at 37 °C for two (L1210), three (CEM) or four (HeLa) days, the cell number was determined using a Coulter counter. The IC50 was defined as the compound concentration required to inhibit cell proliferation by 50%.
# [10] = tested on: human T-lymphocyte (CEM); experiment: as above; type: cell-based; conditions: 72 h, concentration inhibiting cell proliferation by 50%, three days incubation, mean of three repeats
# Method: as §5, §6
# [11] = tested on: human cervix carcinoma (HeLa); experiment: as above; type: cell-based; conditions: 96 h, concentration inhibiting cell proliferation by 50%, four days incubation, mean of three repeats
# Method: as §5, §6
# [12] = tested on: human bone marrow-derived mesenchymal stem cells (MSC); experiment: Cytotoxicity against bone cells, trypan blue staining; type: cell-based; conditions: for effect on proliferation and viability: 12.5 µM, after 48h and after 6 days of exposure, trypan blue
# Method: (§7) The cytotoxicity of the compounds was measured on cell cultures of two cell types represented in bone tissue, namely human osteoblasts (OB) and human bone marrow-derived mesenchymal stem cells (MSC). These tests were conducted according to ISO 10993-5 cytotoxicity standard. The cells were seeded in a 96-well plate at a density of 5000 cells/cm^2 in cell culture media (Advanced DMEM, 10% FBS, 1× GlutaMAX, 0.05 mg/mL gentamicin) and allowed to attach overnight. […]
# (§8) Trypan blue staining: the medium was removed from the wells, and 1/3 trypan blue in DMEM medium was added to the cells, incubated for 3 min, after which trypan blue was removed and DMEM medium was added to the wells. In each of four wells, two microscopy fields were counted for viable (transparent) and dead (blue) cells.
# [13] = tested on: human osteoblasts (OB); experiment: as above; type: cell-based; conditions: for effect on proliferation and viability: 12.5 µM, after 48h and after 6 days of exposure, trypan blue
# Method: as §7, §8
# [14] = tested on: P. aeruginosa biofilm; conditions: concentration preventing biofilm formation (at 25 °C) by 50%; as previously reported ref 13, 14, 15, 16; read-out: BIC50 P. aeruginosa; cited from earlier work
# [15] = tested on: C. elegans; type: in vivo, Caenorhabditis elegans; conditions: for C. elegans % survival at 25 µM: after 7 days relative to viability at day 0, mean of at least two repeats; for effect on C. elegans survival at 100 µM / effect on C. elegans survival at 200 µM: 7 days of exposure
# Method: Eggs of a double mutant (glp-4Dsek-1D) of C. elegans were grown on NGM/OP50 agar plates (NGM agar plates on the surface inoculated with 100 µL of an overnight culture of OP50 Escherichia coli and stored at 4 °C until use) at 25 °C until all nematodes had reached the L4 stage. Worms were collected and washed with M9 buffer (3 g/L KH2PO4, 6 g/L Na2HPO4, 5 g/L NaCl, 1 mM MgSO4). For toxicity testing, 40 to 50 worms were suspended in 250 μL M9 (supplemented with 10 µg/mL cholesterol, 75 µg/mL ampicillin and 100 µg/mL kanamycin) buffer in each well of 24-well microtiter plates, in the presence or absence (0.5% DMSO control) of 25, 100 or 200 µM of the test compounds and grown for 7 days at 25 °C. The percentage survival of the worms in the presence or absence of anti-biofilm compounds was calculated after 7 days relative to their viability at day 0.
# [16] = tested on: calcium entry in PC12 cells; design: method as in PMID 15777959; conditions: cited from earlier work
# [17] = tested on: mouse ES cells; design: method as in PMID 2998604; conditions: by inhibiting matrix metalloproteinase 2; cited from earlier work
# [18] = tested on: A-431 cells; design: method as in PMID 9748366, PMID 12939464; conditions: cited from earlier work
# [19] = tested on: epidermal growth factor-stimulated DNA synthesis in squamous cell tumors; conditions: cited from earlier work
# [20] = tested on: murine-grafted tumors, including P388 and L1210 leukemias, and solid tumors; design: method as in PMID 1783523, PMID 15133248; conditions: cited from earlier work
# [21] = tested on: several tumor cell lines; design: method as in PMID 1783523, PMID 15133248; conditions: cited from earlier work
molecule,measurement,setting,value
NC[C@@H]1Cc2[nH]c(N)nc2C[C@@H]1CN [2o],cytotoxicity in GH4C1 rat pituitary and N2A mouse neuroblastoma cell lines,[1],lack the cytotoxicity
C/C(=C\c1ccccc1)Cn1cc(CCCCCc2c[nH]c(N)n2)nn1 [2r],toxicity against Caenorhabditis elegans,[2],lack toxicity
same,effect on HaCaT keratinocyte cells,[3],differential effect
CCCCCCCCCCCCCNC(=O)CCCc1c[nH]c(N)n1 [2q],toxicity against Caenorhabditis elegans,[2],lack toxicity
same,effect on HaCaT keratinocyte cells,[3],differential effect
NC[C@H]1Cc2nc(N)[nH]c2C[C@@H]1CN [2n],cytotoxicity in GH4C1 rat pituitary and N2A mouse neuroblastoma cell lines,[1],lack the cytotoxicity
CCCCNc1ncc(-c2ccc(Br)cc2)[nH]1 [compound 25],calcium deposition compared to the solvent control (osteogenic differentiation potential),[4],none of the compounds does negatively affect
same,calcium deposition compared to the solvent control (osteogenic differentiation potential),[5],none of the compounds does negatively affect; also recorded: significantly induces
same,IC50,[6],7.1 µM
same,effect on metabolic activity,[7],slightly enhance
same,effect on metabolic activity,[8],slightly enhance
same,IC50,[9],126 µM
same,IC50,[10],493 µM
same,IC50,[11],50.7 µM
same,effect on proliferation and viability,[12],do not or only slightly reduce
same,survival of cells after 4 weeks of exposure,[12],allow survival
same,effect on proliferation and viability,[13],do not or only slightly reduce
same,survival of cells after 4 weeks of exposure,[13],allow survival
same,IC50,[14],9.8 µM
same,C. elegans % survival at 25 µM,[15],102.4%
same,effect on C. elegans survival at 100 µM,[15],none of the compounds significantly affect
same,effect on C. elegans survival at 200 µM,[15],do not significantly affect survival
"Nc1nc([C@@H]2c3[nH]c(N)nc3C[C@H](CNC(=O)c3cc(Br)c[nH]3)[C@H]2CNC(=O)c2cc(Br)c(Br)[nH]2)c[nH]1 [2b, bromoageliferin]",calcium entry in PC12 cells,[16],inhibit the calcium entry
Cn1c(C(=O)NCCCc2c[nH]c(N)n2)cc(Br)c1Br [2p],toxicity against Caenorhabditis elegans,[2],lack toxicity
same,effect on HaCaT keratinocyte cells,[3],differential effect
CC(C)CNc1ncc(-c2ccc(Cl)cc2)[nH]1 [compound 22],calcium deposition compared to the solvent control (osteogenic differentiation potential),[4],none of the compounds does negatively affect; also recorded: significantly (p < 0.05) induces
same,calcium deposition compared to the solvent control (osteogenic differentiation potential),[5],none of the compounds does negatively affect; also recorded: significantly (p < 0.05) induces
same,IC50,[6],2 µM
same,effect on metabolic activity,[7],slightly enhance
same,effect on metabolic activity,[8],slightly enhance
same,IC50,[9],336 µM
same,IC50,[10],297 µM
same,IC50,[11],172 µM
same,effect on proliferation and viability,[12],do not or only slightly reduce
same,survival of cells after 4 weeks of exposure,[12],allow survival
same,effect on proliferation and viability,[13],do not or only slightly reduce
same,survival of cells after 4 weeks of exposure,[13],allow survival
same,IC50,[14],0.9 µM
same,C. elegans % survival at 25 µM,[15],97.6%
same,effect on C. elegans survival at 100 µM,[15],none of the compounds significantly affect
same,effect on C. elegans survival at 200 µM,[15],do not significantly affect survival
"Nc1nc2c(-c3cc(Br)c(Br)[nH]3)nccc2[nH]1 [2d, ageladine A]",angiogenesis in a model using mouse ES cells,[17],reduce angiogenesis
"COc1ccc(Cc2nc(NC3=NC(=O)N(C)C3=O)n(C)c2Cc2ccc(O)cc2)cc1 [2j, naamidine A]",cell cycle arrest of A-431 cells,[18],arrest in the G1 phase
same,inhibition of epidermal growth factor-stimulated DNA synthesis,[19]; squamous cell tumors,potently inhibit
"NC[C@H](Cl)[C@@H](O)c1c[nH]c(N)n1 [2a, girolline]",cytotoxicity in vivo against murine-grafted tumors,[20],significant cytotoxicity
same,cytotoxicity in vitro against several tumor cell lines,[21],significant cytotoxicity
dibromoageliferin [2c],calcium entry in PC12 cells,[16],inhibit the calcium entry
"COc1ccc(Cc2[nH]c(=N)n(C)c2Cc2ccc(O)cc2)cc1 [2m, naamine A]",ability to inhibit EGFR stimulated DNA synthesis,[19]; compared with naamidine A,markedly decreased ability to inhibit
